Relative influx, Ki and IC50 data for three molecules are collected here from ChEMBL document CHEMBL1126220, “Synthesis and antifolate properties of 5,10-ethano-5,10-dideazaaminopterin” (J Med Chem, 1992).

Assay [1] is described as follows: Influx with respect to the MTX. It counts as functional.
The next assay addresses T1, Dihydrofolate reductase (Mus musculus, UniProt P00375).
T1 sequence (P00375 whole entry): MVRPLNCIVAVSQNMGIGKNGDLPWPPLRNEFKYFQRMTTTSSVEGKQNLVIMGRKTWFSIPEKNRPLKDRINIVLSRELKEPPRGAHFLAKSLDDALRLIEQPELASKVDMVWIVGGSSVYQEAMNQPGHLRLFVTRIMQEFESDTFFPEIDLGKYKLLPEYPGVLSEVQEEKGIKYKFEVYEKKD
Nature of the assay: Inhibition of the dihydrofolate reductase enzyme(DHFR) derived from L1210 murine leukemia cells. It counts as cell-based.

The next assay deals with L1210. Nature of the assay: Concentration required to inhibit 50% growth of L1210 cells in culture. Conditions: Mus musculus. It is filed as functional, cell-based.

As to `CC(Cc1cnc2nc(N)nc(N)c2c1)c1ccc(C(=O)NC(CCC(=O)O)C(=O)O)cc1` (stereo not given), the Relative influx in assay [1] amounted to 1.43.

Usually Ki stands for a measure of affinity in units of concentration, obtained from inhibition or displacement. A high value points to weaker binding. For orientation: IC50 means the concentration that gives 50% inhibition. High values mean a need for much substance, low ones inhibition by little substance. The molecule `Nc1nc(N)c2c3c(cnc2n1)CC(c1ccc(C(=O)NC(CCC(=O)O)C(=O)O)cc1)CC3` (stereo not given) displayed a Relative influx in assay [1] of 3.3. The same molecule showed a Ki at Dihydrofolate reductase of 0.017 nM. Further, the half-maximal inhibitory concentration (IC50) with L1210 was 4.5 nM.

For the molecule `CCC(Cc1cnc2nc(N)nc(N)c2c1)c1ccc(C(=O)NC(CCC(=O)O)C(=O)O)cc1` (stereo not given), in assay [1], the Relative influx amounted to 1.32.
